From patent US20260200939A1, “MOLECULAR GLUE DEGRADER COMPOUNDS AND USES THEREOF” (Novartis AG, priority 2022, published 2026)

Columns and labels:
BRD4 short = molecular target: T1, BRD4 short (Homo sapiens, UniProt O60885); test: BRD4 (short) degradation assay, Western blotting; format: cell-based
T1 construct: endogenous in cells; host or cells: HEK293T
Experimental: (§1) C33A cells were purchased from American Type Culture Collection (ATCC) and were cultured in Dulbecco's Modified Eagle Medium (DMEM) containing 10% (v/v) fetal bovine serum (FBS) and maintained at 37° C. with 5% CO2. 22RV1 cells were purchased from the ATCC and were cultured in RPMI-1640 Medium containing 10% (v/v) FBS and maintained at 37° C. with 5% CO2. HEK293T cells were obtained from the UC Berkeley Cell Culture Facility and were cultured in DMEM containing 10% (v/v) FBS and maintained at 37° C. with 5% CO2. K562 cells were obtained from the UC Berkeley Cell Culture Facility and were cultured in Iscove's Modified Dulbecco's Medium (IMDM) containing 10% (v/v) FBS and maintained at 37° C. with 5% CO2. MV-4-11 cells were obtained from the ATCC and were cultured in IMDM containing 10% (v/v) FBS and maintained at 37° C. with 5% CO2. A549 cells were obtained from the ATCC and were cultured in F-12K Medium containing 10% (v/v) FBS and maintained at 37° C. with 5% CO2. Mino cells were obtained from the ATCC and were cultured in RPMI-1640 Medium containing 10% (v/v) FBS and maintained at 37° C. with 5% CO2. LNCaP cells were obtained from the ATCC and were cultured in RPMI-1640 Medium containing 10% (v/v) FBS and maintained at 37° C. with 5% CO2. Unless otherwise specified, all cell culture materials were purchased from Gibco. It is not known whether HEK293T cells are from male or female origin.
(§2) Cells were washed twice with cold PBS, scraped, and pelleted by centrifugation (700 g, 5 min, 4° C.). Pellets were resuspended in PBS, sonicated, clarified by centrifugation (12,000 g, 10 min, 4° C.), and lysate was transferred to new low-adhesion microcentrifuge tubes. Proteome concentrations were determined using BCA assay and lysate was diluted to appropriate working concentrations.
(§3) Proteins were resolved by SDS/PAGE and transferred to nitrocellulose membranes using the Trans-Blot Turbo transfer system (Bio-Rad). Membranes were blocked with 5% BSA in Tris-buffered saline containing Tween 20 (TBS-T) solution for 30 min at RT, washed in TBS-T, and probed with primary antibody diluted in recommended diluent per manufacturer overnight at 4° C. After 3 washes with TBS-T, the membranes were incubated in the dark with IR680- or IR800-conjugated secondary antibodies at 1:10,000 dilution in 5% BSA in TBS-T at RT for 1 h. After 3 additional washes with TBST, blots were visualized using an Odyssey Li-Cor fluorescent scanner. The membranes were stripped using ReBlot Plus Strong Antibody Stripping Solution (EMD Millipore) when additional primary antibody incubations were performed. Antibodies used in this study were CDK4 (Abcam ab108357), Vinculin (Abcam ab129002), GAPDH (Cell Signaling Technology 14C10), RNF126 (Santa Cruz Biotechnology sc-376005), BRD4 (Abcam ab128874), Beta Actin (Cell Signaling Technology 13E5), PDE5 (Abcam ab259945), AR-V7 (Abcam ab273500), c-Abl (Santa Cruz Biotechnology sc-23), SMARCA2 (Abcam ab240648), LRRK2 (Abcam ab133474), BTK (Cell Signaling Technology D3H5), Androgen Receptor (Abcam ab133273).

BRD4 long = molecular target: T2, BRD4 long (Homo sapiens, UniProt O60885); test: BRD4 (long) degradation assay, Western blotting; format: cell-based
T2 construct: endogenous in cells; host or cells: HEK293T
Experimental: as §1, §2, §3

[1] = second value of cell (long/short)
[2] = first value of cell (long/short)
[3] = second value of cell, range with lower bound in nM and upper bound in μM
[4] = first value of cell, range with lower bound in nM and upper bound in μM

| DC50 (BRD4 short; [1]) [nM] | DC50 (BRD4 long; [2]) [nM] | DC50 (BRD4 short; [3]) [nM] | DC50 (BRD4 long; [4]) [nM] | Compound |
| --- | --- | --- | --- | --- |
| 10 to 100 | 10 to 100 | – | – | COc1ccc(C(=O)/C=C/C(=O)N2CC3CCC(C2)N(C(=O)C[C@@H]2N=C(c4ccc(Cl)cc4)c4c(sc(C)c4C)-n4c(C)nnc42)C3)cc1 (stereo partly drawn) [Compound 228, (E)-1-(6-(2-((S)-4-(4-chlorophenyl)-2,3,9-trimethyl-6H-thieno[3,2-f][1,2,4]triazolo[4,3-a][1,4]diazepin-6-yl)acetyl)-3,6-diazabicyclo[3.2.2]nonan-3-yl)-4-(4-methoxyphenyl)but-2-ene-1,4-dione] |
| – | – | 100 to 1000 | 100 to 1000 | COc1ccc(C(=O)/C=C/C(=O)N2CC3CC(C2)CN(C(=O)C[C@@H]2N=C(c4ccc(Cl)cc4)c4c(sc(C)c4C)-n4c(C)nnc42)C3)cc1 [Compound 229, (E)-1-(7-(2-((S)-4-(4-chlorophenyl)-2,3,9-trimethyl-6H-thieno[3,2-f][1,2,4]triazolo[4,3-a][1,4]diazepin-6-yl)acetyl)-3,7-diazabicyclo[3.3.1]nonan-3-yl)-4-(4-methoxyphenyl)but-2-ene-1,4-dione] |
| 10 to 100 | 10 to 100 | – | – | COc1ccc(C(=O)/C=C/C(=O)N2CC3CN(C(=O)C[C@@H]4N=C(c5ccc(Cl)cc5)c5c(sc(C)c5C)-n5c(C)nnc54)CC3C2)cc1 (stereo partly drawn) [Compound 230, (E)-1-(5-(2-((S)-4-(4-chlorophenyl)-2,3,9-trimethyl-6H-thieno[3,2-f][1,2,4]triazolo[4,3-a][1,4]diazepin-6-yl)acetyl)hexahydropyrrolo[3,4-c]pyrrol-2(1H)-yl)-4-(4-methoxyphenyl)but-2-ene-1,4-dione] |
| 1 to 10 | 10 to 100 | – | – | COc1ccc(C(=O)/C=C/C(=O)N2CCC3(CC2)CN(C(=O)C[C@@H]2N=C(c4ccc(Cl)cc4)c4c(sc(C)c4C)-n4c(C)nnc42)CCO3)cc1 [Compound 231, (S,E)-1-(4-(2-(4-(4-chlorophenyl)-2,3,9-trimethyl-6H-thieno[3,2-f][1,2,4]triazolo[4,3-a][1,4]diazepin-6-yl)acetyl)-1-oxa-4,9-diazaspiro[5.5]undecan-9-yl)-4-(4-methoxyphenyl)but-2-ene-1,4-dione] |
| 10 to 100 | 10 to 100 | – | – | COc1ccc(C(=O)/C=C\C(=O)N2CCN(C(=O)C[C@@H]3N=C(c4ccc(Cl)cc4)c4c(sc(C)c4C)-n4c(C)nnc43)CC2)cc1 [Compound 232, (S,Z)-1-(4-(2-(4-(4-chlorophenyl)-2,3,9-trimethyl-6H-thieno[3,2-f][1,2,4]triazolo[4,3-a][1,4]diazepin-6-yl)acetyl)piperazin-1-yl)-4-(4-methoxyphenyl)but-2-ene-1,4-dione] |
| < 100 | < 100 | – | – | COc1ccc(C(=O)/C=C/C(=O)N2CCN(C(=O)C[C@@H]3N=C(c4ccc(Cl)cc4)c4c(sc(C)c4C)-n4c(C)nnc43)CC2)c(F)c1 [Compound 233, (S,E)-1-(4-(2-(4-(4-chlorophenyl)-2,3,9-trimethyl-6H-thieno[3,2-f][1,2,4]triazolo[4,3-a][1,4]diazepin-6-yl)acetyl)piperazin-1-yl)-4-(2-fluoro-4-methoxyphenyl)but-2-ene-1,4-dione] |
| 150 | 50 | – | – | COc1ccc(C(=O)/C=C/C(=O)N[C@H]2C[C@H](NC(=O)CC3N=C(c4ccc(Cl)cc4)c4c(sc(C)c4C)-n4c(C)nnc43)C2)c(F)c1 (stereo partly drawn) [Compound 234, (E)-N-((1S,3r)-3-(2-((S)-4-(4-chlorophenyl)-2,3,9-trimethyl-6H-thieno[3,2-f][1,2,4]triazolo[4,3-a][1,4]diazepin-6-yl)acetamido)cyclobutyl)-4-(2-fluoro-4-methoxyphenyl)-4-oxobut-2-enamide] |
| < 100 | < 100 | – | – | COc1cc(F)ccc1C(=O)/C=C/C(=O)N1CCN(C(=O)C[C@@H]2N=C(c3ccc(Cl)cc3)c3c(sc(C)c3C)-n3c(C)nnc32)CC1 [Compound 235, (S,E)-1-(4-(2-(4-(4-chlorophenyl)-2,3,9-trimethyl-6H-thieno[3,2-f][1,2,4]triazolo[4,3-a][1,4]diazepin-6-yl)acetyl)piperazin-1-yl)-4-(4-fluoro-2-methoxyphenyl)but-2-ene-1,4-dione] |
| 190 | 90 | – | – | COc1ccc(C(=O)/C=C/C(=O)N[C@H]2C[C@H](NC(=O)C[C@@H]3N=C(c4ccc(Cl)cc4)c4c(sc(C)c4C)-n4c(C)nnc43)C2)cc1F [Compound 236, (E)-N-((1S,3r)-3-(2-((S)-4-(4-chlorophenyl)-2,3,9-trimethyl-6H-thieno[3,2-f][1,2,4]triazolo[4,3-a][1,4]diazepin-6-yl)acetamido)cyclobutyl)-4-(3-fluoro-4-methoxyphenyl)-4-oxobut-2-enamide] |
| < 100 | < 100 | – | – | COc1ccc(C(=O)/C=C/C(=O)N2CCN(C(=O)C[C@@H]3N=C(c4ccc(Cl)cc4)c4c(sc(C)c4C)-n4c(C)nnc43)CC2)cc1F [Compound 237, (S,E)-1-(4-(2-(4-(4-chlorophenyl)-2,3,9-trimethyl-6H-thieno[3,2-f][1,2,4]triazolo[4,3-a][1,4]diazepin-6-yl)acetyl)piperazin-1-yl)-4-(3-fluoro-4-methoxyphenyl)but-2-ene-1,4-dione] |
| < 100 | – | – | 100 to 1000 | Cc1sc2c(c1C)C(c1ccc(Cl)cc1)=N[C@@H](CC(=O)N1CCN(C(=O)/C=C/C(=O)c3ccc(C#N)cc3)CC1)c1nnc(C)n1-2 [Compound 238, (S,E)-4-(4-(4-(2-(4-(4-chlorophenyl)-2,3,9-trimethyl-6H-thieno[3,2-f][1,2,4]triazolo[4,3-a][1,4]diazepin-6-yl)acetyl)piperazin-1-yl)-4-oxobut-2-enoyl)benzonitrile] |
| – | – | 100 to 1000 | 100 to 1000 | Cc1sc2c(c1C)C(c1ccc(Cl)cc1)=N[C@@H](CC(=O)N1CCN(C(=O)/C=C/C(=O)c3cccc(C#N)c3)CC1)c1nnc(C)n1-2 [Compound 239, (S,E)-3-(4-(4-(2-(4-(4-chlorophenyl)-2,3,9-trimethyl-6H-thieno[3,2-f][1,2,4]triazolo[4,3-a][1,4]diazepin-6-yl)acetyl)piperazin-1-yl)-4-oxobut-2-enoyl)benzonitrile] |
| 10 to 100 | < 10 | – | – | COc1ccc(C(=O)/C=C/C(=O)N2CCN(C(=O)C[C@@H]3N=C(c4ccc(Cl)cc4)c4c(sc(C)c4C)-n4c(C)nnc43)CC2)c(Cl)c1 [Compound 240, (S,E)-1-(2-chloro-4-methoxyphenyl)-4-(4-(2-(4-(4-chlorophenyl)-2,3,9-trimethyl-6H-thieno[3,2-f][1,2,4]triazolo[4,3-a][1,4]diazepin-6-yl)acetyl)piperazin-1-yl)but-2-ene-1,4-dione] |
| 180 | 90 | – | – | COc1ccc(C(=O)/C=C/C(=O)N[C@H]2C[C@H](NC(=O)C[C@@H]3N=C(c4ccc(Cl)cc4)c4c(sc(C)c4C)-n4c(C)nnc43)C2)c(Cl)c1 [Compound 241, (E)-4-(2-chloro-4-methoxyphenyl)-N-((1S,3r)-3-(2-((S)-4-(4-chlorophenyl)-2,3,9-trimethyl-6H-thieno[3,2-f][1,2,4]triazolo[4,3-a][1,4]diazepin-6-yl)acetamido)cyclobutyl)-4-oxobut-2-enamide] |
| 40 | 80 | – | – | Cc1sc2c(c1C)C(c1ccc(Cl)cc1)=N[C@@H](CC(=O)N1CCN(C(=O)/C=C/C(=O)c3ccc(=O)n(C)c3)CC1)c1nnc(C)n1-2 [Compound 242, (S,E)-1-(4-(2-(4-(4-chlorophenyl)-2,3,9-trimethyl-6H-thieno[3,2-f][1,2,4]triazolo[4,3-a][1,4]diazepin-6-yl)acetyl)piperazin-1-yl)-4-(1-methyl-6-oxo-1,6-dihydropyridin-3-y1)but-2-ene-1,4-dione] |
